# Source: patent publication US8338465B2, “Cyclic carboxylic acid rhodanine derivatives for the treatment and prevention of tuberculosis” (priority 2006, dated 2012)
# pIC50: −log10 of the molar value.
# Target: T1, dihydrolipoamide acyltransferase (DlaT) (Mycobacterium tuberculosis, UniProt P9WIS7)
# T1 sequence (P9WIS7 1-553): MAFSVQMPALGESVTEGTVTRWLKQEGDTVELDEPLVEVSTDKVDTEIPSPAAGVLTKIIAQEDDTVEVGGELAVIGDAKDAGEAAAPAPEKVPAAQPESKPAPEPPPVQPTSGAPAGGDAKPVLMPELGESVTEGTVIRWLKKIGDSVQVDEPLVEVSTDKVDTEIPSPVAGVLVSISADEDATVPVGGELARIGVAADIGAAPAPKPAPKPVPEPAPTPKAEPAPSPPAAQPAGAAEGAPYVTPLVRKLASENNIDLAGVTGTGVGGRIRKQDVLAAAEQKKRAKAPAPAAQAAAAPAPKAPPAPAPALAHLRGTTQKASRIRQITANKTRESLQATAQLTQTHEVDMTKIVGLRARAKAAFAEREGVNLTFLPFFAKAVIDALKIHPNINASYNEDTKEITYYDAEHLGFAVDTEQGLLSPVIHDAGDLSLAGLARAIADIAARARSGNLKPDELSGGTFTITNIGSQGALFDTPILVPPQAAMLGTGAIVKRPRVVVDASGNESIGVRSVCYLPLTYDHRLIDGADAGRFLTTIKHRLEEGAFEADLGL
# Experiment: DlaT inhibition (Dlat IC50); DTNB peroxidase assay with Lpd, DlaT and AhpD
# Format: biochemical
# Conditions: Dlat IC50 category
row,SMILES,pIC50
1,Cc1cc(N(C)C)ccc1-c1ccc(C=C2SC(=S)N(CCCC(=O)O)C2=O)o1 [Compound B92],4.40 to 4.96
2,CS(=O)(=O)c1ccc(-c2ccc(C=C3SC(=S)N(CCCC(=O)O)C3=O)o2)cc1 [Compound B93],4.40 to 4.96
3,CC(C(=O)O)N1C(=O)C(=Cc2ccc(-c3ccccc3Cl)o2)SC1=S (stereo not shown) [Compound B94],4.40 to 4.96
4,CC(C(=O)O)N1C(=O)C(=Cc2ccc(-c3cccc(Cl)c3)o2)SC1=S (stereo not shown) [Compound B95],4.40 to 4.96
5,CC(C(=O)O)N1C(=O)C(=Cc2ccc(-c3ccc(Cl)cc3)o2)SC1=S (stereo not shown) [Compound B96],> 5.00
6,Cc1ccccc1-c1ccc(C=C2SC(=S)N(C(C)C(=O)O)C2=O)o1 (stereo not shown) [Compound B97],4.40 to 4.96
7,CC(C(=O)O)N1C(=O)C(=Cc2ccc(-c3ccc(F)cc3)o2)SC1=S (stereo not shown) [Compound B98],4.10 to 4.39
8,CC(C(=O)O)N1C(=O)C(=Cc2ccc(-c3ccccc3C(F)(F)F)o2)SC1=S (stereo not shown) [Compound B99],4.40 to 4.96
9,CC(C(=O)O)N1C(=O)C(=Cc2ccc(-c3cccc(C(F)(F)F)c3)o2)SC1=S (stereo not shown) [Compound B100],> 5.00
10,CC(C)C(C(=O)O)N1C(=O)C(=Cc2ccc(-c3ccccc3Cl)o2)SC1=S (stereo not shown) [Compound B101],> 5.00
11,CC(C)C(C(=O)O)N1C(=O)C(=Cc2ccc(-c3cccc(Cl)c3)o2)SC1=S (stereo not shown) [Compound B102],4.40 to 4.96
12,CC(C)C(C(=O)O)N1C(=O)C(=Cc2ccc(-c3ccc(Cl)cc3)o2)SC1=S (stereo not shown) [Compound B103],> 5.00
13,CC(C)C(C(=O)O)N1C(=O)C(=Cc2ccc(-c3ccccc3C(F)(F)F)o2)SC1=S (stereo not shown) [Compound B104],> 5.00
14,CC(C)C(C(=O)O)N1C(=O)C(=Cc2ccc(-c3cccc(C(F)(F)F)c3)o2)SC1=S (stereo not shown) [Compound B105],4.40 to 4.96
15,Cc1ccccc1-c1ccc(C=C2SC(=S)N(C(C(=O)O)C(C)C)C2=O)o1 (stereo not shown) [Compound B106],4.40 to 4.96
16,CC(C)C(C(=O)O)N1C(=O)C(=Cc2ccc(-c3ccc(F)cc3)o2)SC1=S (stereo not shown) [Compound B107],4.40 to 4.96
17,CC(C)C(C(=O)O)N1C(=O)C(=Cc2ccc(-c3ccc(Cl)cc3Cl)o2)SC1=S (stereo not shown) [Compound B108],> 5.00
18,COc1ccc(-c2ccc(C=C3SC(=S)N(C(C(=O)O)C(C)C)C3=O)o2)cc1Cl (stereo not shown) [Compound B109],> 5.00
19,CC(C)C(C(=O)O)N1C(=O)C(=Cc2ccc(-c3ccc(Cl)cc3[N+](=O)[O-])o2)SC1=S (stereo not shown) [Compound B110],4.40 to 4.96

row,SMILES,pIC50
1,CC(C)C(C(=O)O)N1C(=O)C(=Cc2ccc(-c3ccc(Cl)c(Cl)c3)o2)SC1=S (stereo not shown) [Compound B111],> 5.00
2,COc1ccc(-c2ccc(C=C3SC(=S)N(C(C)C(=O)O)C3=O)o2)cc1Cl (stereo not shown) [Compound B113],> 5.00
3,CC(C(=O)O)N1C(=O)C(=Cc2ccc(-c3ccc(Cl)cc3[N+](=O)[O-])o2)SC1=S (stereo not shown) [Compound B114],4.40 to 4.96
4,CNS(=O)(=O)c1ccc(-c2ccc(C=C3SC(=S)N(CCCC(=O)O)C3=O)o2)cc1 [Compound B115],4.10 to 4.39
5,"O=C(O)C1CCCC(N2C(=O)C(=Cc3ccc(-c4ccccc4Cl)o3)SC2=S)C1 (stereo not shown) [Compound C1, 3-{5-[1-[5-(2-chloro-phenyl)-furan-2-yl]-methylidene]-4-oxo-2-thioxo-thiazolidin-3-yl}-cyclohexanecarboxylic acid]",4.40 to 4.96
6,"O=C(O)C1CCCC(N2C(=O)C(=Cc3ccc(-c4ccc(C5CCCCC5)cc4)o3)SC2=S)C1 (stereo not shown) [Compound C2, 3-{5-[1-[5-(4-cyclohexyl-phenyl)-furan-2-yl]-methylidene]-4-oxo-2-thioxo-thiazolidin-3-yl}-cyclohexanecarboxylic acid]",> 5.00
7,"CC(C)(C)c1ccc(-c2ccc(C=C3SC(=S)N(C4CCCC(C(=O)O)C4)C3=O)o2)cc1 (stereo not shown) [Compound C3, 3-{5-[1-[5-(4-tert-butyl-phenyl)-furan-2-yl]-methylidene]-4-oxo-2-thioxo-thiazolidin-3-yl}-cyclohexanecarboxylic acid]",> 5.00
8,"CC(C)Cc1ccc(-c2ccc(C=C3SC(=S)N(C4CCCC(C(=O)O)C4)C3=O)o2)cc1 (stereo not shown) [Compound C4, 3-{5-[1-[5-(4-isobutyl-phenyl)-furan-2-yl]methylidene]-4-oxo-2-thioxo-thiazolidin-3-yl}-cyclohexanecarboxylic acid]",> 5.00
9,"O=C(O)C1CCCC(N2C(=O)C(=Cc3ccc(-c4cccc(C(F)(F)F)c4)o3)SC2=S)C1 (stereo not shown) [Compound C5, 3-{5-[1-[5-(3-trifluoromethyl-phenyl)-furan-2-yl]-methylidene]-4-oxo-2-thioxo-thiazolidin-3-yl}-cyclohexanecarboxylic acid]",> 5.00
10,"O=C(O)C1CCCC(N2C(=O)C(=Cc3ccc(-c4ccc(Cc5ccccc5)cc4)o3)SC2=S)C1 (stereo not shown) [Compound C6, 3-{5-[1-[5-(4-benzyl-phenyl)-furan-2-yl]-methylidene]-4-oxo-2-thioxo-thiazolidin-3-yl}-cyclohexanecarboxylic acid]",> 5.00
11,"O=C(O)C1CCCC(N2C(=O)C(=Cc3ccc(-c4ccc(F)cc4F)o3)SC2=S)C1 (stereo not shown) [Compound C7, 3-{5-[1-[5-(2,4-difluoro-phenyl)-furan-2-yl]-methylidene]-4-oxo-2-thioxo-thiazolidin-3-yl}-cyclohexanecarboxylic acid]",> 5.00
12,"Cc1ccc(-c2ccc(C=C3SC(=S)N(C4CCCC(C(=O)O)C4)C3=O)o2)c(C)c1 (stereo not shown) [Compound C8, 3-{5-[1-[5-(2,4-dimethyl-phenyl)-furan-2-yl]-methylidene]-4-oxo-2-thioxo-thiazolidin-3-yl}-cyclohexanecarboxylic acid]",> 5.00
13,"COc1ccc(-c2ccc(C=C3SC(=S)N(C4CCCC(C(=O)O)C4)C3=O)o2)c(C)c1 (stereo not shown) [Compound C9, 3-{5-[1-[5-(2-methyl-4-methoxy-phenyl)-furan-2-yl]-methylidene]-4-oxo-2-thioxo-thiazolidin-3-yl}-cyclohexanecarboxylic acid]",4.40 to 4.96
14,"Cc1ccccc1-c1cccc(C=C2SC(=S)N(C3CCCC(C(=O)O)C3)C2=O)n1 (stereo not shown) [Compound C10, 3-[4-Oxo-2-thioxo-5-(6-o-tolyl-pyridin-2-ylmethylene)-thiazolidin-3-yl]-cyclohexanecarboxylic acid]",4.10 to 4.39
15,"Cc1cc(F)ccc1-c1ccc(C=C2SC(=S)N(C3CCCC(C(=O)O)C3)C2=O)o1 (stereo not shown) [Compound C11, 3-{5-[1-[5-(2-methyl-4-fluoro-phenyl)-furan-2-yl]-methylidene]-4-oxo-2-thioxo-thiazolidin-3-yl}-cyclohexanecarboxylic acid]",> 5.00
16,"Cc1ccc(-c2ccc(C=C3SC(=S)N(C4CCCC(C(=O)O)C4)C3=O)o2)c(F)c1 (stereo not shown) [Compound C12, 3-{5-[1-[5-(2-fluoro-4-methyl-phenyl)-furan-2-yl]-methylidene]-4-oxo-2-thioxo-thiazolidin-3-yl}-cyclohexanecarboxylic acid]",> 5.00
17,"O=C(O)C1CCCC(N2C(=O)C(=Cc3ccc(-c4ccccc4O)o3)SC2=S)C1 (stereo not shown) [Compound C13, 3-{5-[1-[5-(2-hydroxy-phenyl)-furan-2-yl]-methylidene]-4-oxo-2-thioxo-thiazolidin-3-yl}-cyclohexanecarboxylic acid]",> 5.00
18,"Cc1ccc(-c2ccc(C=C3SC(=S)N(C4CCCC(C(=O)O)C4)C3=O)o2)cc1 (stereo not shown) [Compound C14, 3-{4-oxo-2-thioxo-5-[1-(5-p-tolyl-furan-2-yl)-methylidene]-thiazolidin-3-yl}-cyclohexanecarboxylic acid]",> 5.00
